According to patent publication US7223733B2, “Modulation of TRIP-Br function and method of treating proliferative disorders” (National University of Singapore, priority 2004, dated 2007):
Where no end group is shown, it is not given here. [invdT] = inverted (3'-3') thymidine

Assays:
Fbxw7 mRNA = test: Semi-quantitative RT-PCR of Fbxw7 in U2OS cells; type: cell-based, human; settings: U2OS, 5, 10 or 20 μM
Method: Semi-quantitative RT-PCR. Total RNA was isolated from U2OS cells or U2OS-ER-E2F-1 cells (grown with or without 1.0 μM OHT and/or 10 μg/ml cycloheximide) using the TRIZOL® Reagent (Life Technologies). Total RNA (4 μg) was reverse transcribed using oligo-dT and M-MLV reverse transcriptase in a total reaction volume of 20 μl. Polymerase Chain Reactions (PCR) were carried out on 3 μl cDNA samples in the presence of […] deoxyribonucleotide triphosphates (dNTPs) and 40 μM of specific primer pairs in a total reaction volume of 50 μ. The cycling profile for PCR was as follow: 30 cycles of denaturation (94° C., 30 sec), annealing (51° C., 30 sec) and extension (72° C., 2 min), with a 2-minute initial denaturation step at 94° C. and a 10-minute terminal polishing step at 72° C. Sequences of gene-specific primers are available upon request. PCR amplification products were analyzed by agarose gel electrophoresis.
FIG. 8: The role(s) of the TRIP-Br integrator function in cyclin E regulation. […] U2OS cells exposed to 5, 10 or 20 μM of decoy peptides were analyzed for Fbxw7 mRNA transcript levels by semi-quantitative RT-PCR. H-actin was co-amplified as an internal control; (C) cyclin-E and Fbxw7 expression was analyzed by semi-quantitative RT-PCR using total RNA from sub-confluent U2OS ER-E2F-1 cells grown with or without OHT and/or cycloheximide (CHX) for 2 h as indicated. […]

[1] = tested on: Caski (cervical carcinoma); test: Anti-proliferative phenotypes in Caski cells; type: cell-based; settings: data not shown
WI-38 cells [2] = test: BrdU incorporation, E2F1/DP1 and cyclin E/Cdk2-induced S phase entry of quiescent WI-38 cells; type: cell-based, human; settings: quiescent WI-38, 0.1 μM
Method: (§1) Cell proliferation assays. For the BrdU incorporation assays, growth-quiescent WI-38 cells in 96-well dishes were transfected with DNA enzyme and/or 100 ng of pCMV/E2F1, pCMV/DP1, pRSV/Cyclin E, or pCMV/Cdk2 and then exposed to Bromodeoxyuridine (BrdU, 100 μM) in the presence or absence of 10% FBS for 20 h. Bromodeoxyuridine (BrdU) incorporation was monitored with a calorimetric ELISA assay using a cell proliferation kit according to manufacturer's recommendations (Boehringer Mannheim). For manual cell count, growth-quiescent WI-38 cells in 24-well dishes were transfected with DNA enzyme and then exposed to 10% FBS for 72 h. The cells were rinsed with PBS, pH 7.4, and trypsinized, and 10 μl of cell suspension was taken from each sample and mixed with equal volume of trypan blue stain (Sigma, 0.4% w/v in 1×PBS). The number of unstained cells was enumerated manually using a hemocytometer. For colony formation assays, growth-quiescent WI-38 cells in 12-well dishes were transfected with DNA enzyme and then exposed to 10% FBS for 120 h. Cells were stained in situ with crystal violet (0.75% w/v hexamethyl-p-rosaniline chloride [SIGMA], 50% ethanol, 1.75% w/v paraformaldehyde, 0.25% w/v NaCl) for 10 min, and then rinsed thoroughly with deionized water to remove excess stains.
FIG. 13: (A) E-Br1 or E-Br2 suppresses serum-inducible S phase entry. […]

WI-38 cells [3] = test: Colony formation assay of WI-38 cells (crystal violet); type: cell-based, human; settings: WI-38, serum-induced, 72 h
Method: DNA enzyme transfection. WI-38 cells were rendered quiescent by cultivation in serum-free medium for 72 h before being transfected with DNA enzyme (0.1 μM) using Superfect as reported previously (Santiago, F. S., et al. Nat Med 5, 1264-1269 (1999)) in accordance to manufacturer's recommendations (Qiagen).
as §1, with “For colony formation assays, growth-quiescent WI-38 cells in 12-well dishes were transfected with DNA enzyme and then exposed to 10% FBS for 120 h.” left out
FIG. 12: (A) E-Br1 or E-Br2 inhibits cell proliferation. Sub-confluent WI-38 cells were serum-starved for 72 h. Following DNA enzyme transfection, the cultures were re-stimulated with serum and allowed to proliferate. After 72 h, cells were harvested for viable cell count analysis. 10 μl of cell suspension from each sample was mixed with equal volume of 0.4% trypan blue stain. The number of unstained cells was enumerated manually using a hemocytometer. Data represent the average of at least two independent experiments. […] (B) E-Br1 or E-Br2 suppresses colony formation. Sub-confluent WI-38 cells were serum-starved for 72 h. […]

| Substance | expression level of Fbxw7 mRNA (Fbxw7 mRNA) | response of Caski cells [1] | S phase entry induced by co-expression of E2F1/DP1 and cyclin E/Cdk2 (WI-38 cells [2]) | colony forming potential (WI-38 cells [3]) |
| --- | --- | --- | --- | --- |
| ERQIKIWFQNRRMKWKKTGFLTDLTLDDILFADID (ERQIKIWFQNRRMKWKKTGFLTDLTLDDILFADID-NH2) [*Br2] | down-regulated the expression level of Fbxw7 in a dose-dependent fashion | in manners similar to those exhibited by U2OS cells | – | – |
| 5′-T TACCCAACAGGCTAGCTACAACGAATATCACA-3′ (DNA TTACCCAACAGGCTAGCTACAACGAATATCACA; DNA, 3' [invdT], backbone not given here) [E-Br2] | – | – | does not influence | significantly reduced colony forming potential |
| 5′-T TGCTCAGCAGGCTAGCTACAACGACTTGCTCA-3′ (DNA TTGCTCAGCAGGCTAGCTACAACGACTTGCTCA; DNA, 3' [invdT], backbone not given here) [E-Br1] | – | – | does not influence | significantly reduced colony forming potential |
| ERQIKIWFQNRRMKWKKATGCLLDDGLEGLFEDID (ERQIKIWFQNRRMKWKKATGCLLDDGLEGLFEDID-NH2) [*Br1] | down-regulated the expression level of Fbxw7 in a dose-dependent fashion | in manners similar to those exhibited by U2OS cells | – | – |
